Literature values in PMC10224173 (Viruses, 2023).

Molecular target: ZIKV NS2B-NS3 protease (Zika virus, UniProt A0A024B7W1)
Settings: Table 2; active site inhibitor; ref [43]

ZIKV NS2B-NS3 protease, sequence (A0A024B7W1 1503-1680): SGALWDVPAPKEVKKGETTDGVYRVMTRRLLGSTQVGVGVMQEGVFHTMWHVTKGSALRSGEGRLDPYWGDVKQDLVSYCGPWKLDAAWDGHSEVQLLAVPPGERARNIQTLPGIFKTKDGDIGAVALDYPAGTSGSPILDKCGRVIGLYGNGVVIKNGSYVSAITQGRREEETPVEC
ZIKV NS2B-NS3 protease, sequence (A0A024B7W1 1419-1472): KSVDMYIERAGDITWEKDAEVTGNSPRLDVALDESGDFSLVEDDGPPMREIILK

CC(C)C[C@H]1C(=O)N2CCC[C@H]2[C@]2(O)O[C@](NC(=O)[C@@H]3C=C4c5cccc6[nH]c(Br)c(c56)C[C@H]4N(C)C3)(C(C)C)C(=O)N12 [Bromocriptine]
IC50: 21.6 µM
